Source: PMC12540682, “Purification and biochemical characterization of L-glutaminase from Aspergillus oryzae with potential biotechnological applications in synthesis of L-theanine and as antitumor agent” (Scientific Reports, 2025)

Tests used:
[1] = biological target: T1, L-glutaminase (Glut) from Aspergillus oryzae EG-RE9; assay: residual activity after preincubation, ammonia release (Nessler); format: biochemical; conditions: 0.1 M phosphate pH 7.0, 20 min preincubation at 37 °C, covalent
T1 construct: gene gtaA; native extracellular enzyme purified from culture filtrate (ammonium sulfate, DEAE-cellulose, Sephadex G-200); 65 kDa by SDS-PAGE
Description: residual activity after preincubation, ammonia release (Nessler) on L-glutaminase (Glut) from Aspergillus oryzae EG-RE9 | The IC50 of BD, NBS, DEPC, and NEM for A. oryzae L-glutaminase were […]

[2] = system: T1, L-glutaminase (Glut) from Aspergillus oryzae EG-RE9; assay: ammonia release (Nessler), Lineweaver-Burk; format: biochemical; conditions: pH 7.0, 35 °C, 1 h; L-glutamine 0.25-12 mM

## O=C1CCC(=O)N1Br [N-bromosuccinimide]
[1]; group-specific modifier of Trp
  IC50: 5.7 mM

## CC(=O)C(C)=O [butanedione]
[1]; group-specific modifier of Arg
  IC50: 6.6 mM

## NC(=O)CC[C@H](N)C(=O)O [L-glutamine]
[2]
  Km: 1400 µM

## CCN1C(=O)C=CC1=O [N-ethylmaleimide]
[1]; group-specific modifier of Cys
  IC50: 4.8 mM

## CCOC(=O)OC(=O)OCC [diethyl pyrocarbonate]
[1]; group-specific modifier of His
  IC50: 7 mM
